Measured values: US6458764B1, “GRF analogs with increased biological potency” (Theratechnologies Inc., priority 1995, dated 2002)
Where no end group is shown, it is not given here. The star is where a group is joined. Hexanoyl = CCCCCC(=O)*

Key:
serum IGF-I [1] = experiment: Comparative effects of GRF analogs on IGF-I levels in pigs (Example II, D-IGF-I, FIG. 1); format: in vivo, pigs (Landrace x Yorkshire); conditions: 20 μg/kg 2×/day S.C., days 1 to 5, n=8 pigs per group
Protocol: This was a 5-day treatment, twice a day S.C. administration of one single dose of each test article vs saline. This experiment was conducted to compare the efficacy of (Aminohexanoyl)0 hGRF (1-29) NH2, (Hexylformiate)0 hGRF (1-29) NH2, (Hexenoyl trans-2)0 hGRF (1-29) NH2, (Hexenoyl trans-3)0 hGRF (1-29) NH2 and (Muconoyl)0 hGRF (1-29) NH2 to that of(Hexanoyl)0 hGRF (1-29) NH2.
ADMINISTRATION: Two daily subcutaneous injections.
TEST SYSTEM: Landrace x Yorkshire pigs.
ANIMAL DESCRIPTION: Fifty six (56) growing barrows pigs weighing 35 kg at the time of purchase.
DESIGN: Fifty six (56) pigs were randomly distributed into 7 experimental groups (n=8 pigs per group). Each group received two daily S.C. administration of the following treatments (volume: 3 ml, S.C. injection).
Treatments were administered from day 1 to 5. Immediately before the injections, one blood sample were collected from each animal, and additional blood samples were collected on day 6.
Blood samples were allowed to clot, serum was harvested by centrifugation and submitted to IGF-I assays.
Results are shown in FIG. 1 as D-IGF-I, which is defined as the increase in IGF-I levels from day 1 (pretreatment levels) to day 6 (after 5 days of GRFs administrations).

serum IGF-I [2] = experiment: Repeated S.C. administrations of GRF analogs, serum IGF-I levels in pigs (Example I, Experiments 1-3; radioimmunoassay); format: in vivo, pigs (Landrace x Yorkshire); conditions: for serum IGF-I, Day 1 (pretreatment): pretreatment baseline; for increase in IGF-I levels: P<0.05
Protocol: The objective of these experiments was to assess the potential of the GRF analogs as anabolic agents.
Therefore, in order to investigate the anabolic potency of the fatty acid-GRF analogs, their ability to increase IGF-I levels following repeated S.C. administrations in pig was evaluated.
26 Landrace x Yorkshire castrated male pigs (40-45 kg BW) were randomly distributed into 4 experimental groups:
Each animal was injected BID (twice a day) subcutaneously for 4 consecutive days. One blood sample was collected each morning prior to the first injection of the day, and the day after the last injection, for IGF-I measurement.
40 Landrace x Yorkshire castrated male pigs (40-45 kg BW) were randomly distributed into 5 experimental groups:
(§1) Each animal was injected BID (twice a day) subcutaneously for 5 consecutive days. One blood sample was collected each morning prior to the first injection of the day, and the day after the last injection, for IGF-I measurement.
48 Landrace x Yorkshire castrated male pigs (40-45 kg BW) were randomly distributed into 6 experimental groups:
as §1, with “The selected doses were 30 μg/kg for hGRF(1-44)NH2 analogs and 20 μg/kg for hGRF(1-29)NH2 analogs, which give identical doses on a molar basis. Each” for “Each”, “measurements.” for “measurement.”
IGF-I levels were measured in pig serum by double antibody radioimmunoassay after formic acid-acetone extraction, as previously described (Abribat T. et al., 1993, J. Endocrinol., 39:583-589). The extraction prior to radioimmunoassay is a necessary step to remove endogenous IGF-binding proteins.
In both experiments, the IGF-I data were analyzed by a two way repeated measure analysis of variance, with day and treatment (GRF analog) as sources of variation. Multiple comparison procedures were there run (Student-Newman Keuls method). A P<0.05 was considered as statistically significant.

[3] = Experiment 1, 20 μg/kg BID SC × 4 days, mean of 6 to 7
[4] = Experiment 3, 20 μg/kg BID SC × 5 days, mean of 8
[5] = Experiment 3, 30 μg/kg BID SC × 5 days, mean of 8

(Aminohexanoyl)0 hGRF (1-29) NH2 (aminohexanoyl-YADAIFTNSYRKVLGQLSARKLLQDIMSR-NH2; UniProt P01286 32-60, looked up, fragment) [aminohexanoyl-hGRF(1-29)NH2]
D-IGF-I: increase in IGF-I levels from day 1 (pretreatment) to day 6 (serum IGF-I [1]): did not

(Hexenoyl trans-2)0 hGRF (1-29) NH2 ({trans‑2‑hexenoyl}-YADAIFTNSYRKVLGQLSARKLLQDIMSR-NH2; UniProt P01286 32-60, looked up, fragment) [hexenoyl trans2-hGRF(1-29)NH2]
D-IGF-I: increase in IGF-I levels from day 1 (pretreatment) to day 6 (serum IGF-I [1]): significantly increased IGF-I levels

(Hexylformiate)0 hGRF (1-29) NH2 (hexylformiate-YADAIFTNSYRKVLGQLSARKLLQDIMSR-NH2; UniProt P01286 32-60, looked up, fragment) [hexylformiate-hGRF(1-29)NH2]
D-IGF-I: increase in IGF-I levels from day 1 (pretreatment) to day 6 (serum IGF-I [1]): significantly increased IGF-I levels

(Muconoyl)0 hGRF (1-29) NH2 (muconoyl-YADAIFTNSYRKVLGQLSARKLLQDIMSR-NH2; UniProt P01286 32-60, looked up, fragment) [muconoyl-hGRF(1-29)NH2]
D-IGF-I: increase in IGF-I levels from day 1 (pretreatment) to day 6 (serum IGF-I [1]): did not

[butyryl^0] hGRF(1-29)NH2 (YADAIFTNSYRKVLGQLSARKLLQDIMSR; HELM PEPTIDE1{[CCCC(=O)[*:2]].Y.A.D.A.I.F.T.N.S.Y.R.K.V.L.G.Q.L.S.A.R.K.L.L.Q.D.I.M.S.R.[am]}$$$$V2.0; SMILES CCCC(=O)N[C@@H](Cc1ccc(O)cc1)C(=O)N[C@@H](C)C(=O)N[C@@H](CC(=O)O)C(=O)N[C@@H](C)C(=O)N[C@H](C(=O)N[C@@H](Cc1ccccc1)C(=O)N[C@H](C(=O)N[C@@H](CC(N)=O)C(=O)N[C@@H](CO)C(=O)N[C@@H](Cc1ccc(O)cc1)C(=O)N[C@@H](CCCNC(=N)N)C(=O)N[C@@H](CCCCN)C(=O)N[C@H](C(=O)N[C@@H](CC(C)C)C(=O)NCC(=O)N[C@@H](CCC(N)=O)C(=O)N[C@@H](CC(C)C)C(=O)N[C@@H](CO)C(=O)N[C@@H](C)C(=O)N[C@@H](CCCNC(=N)N)C(=O)N[C@@H](CCCCN)C(=O)N[C@@H](CC(C)C)C(=O)N[C@@H](CC(C)C)C(=O)N[C@@H](CCC(N)=O)C(=O)N[C@@H](CC(=O)O)C(=O)N[C@H](C(=O)N[C@@H](CCSC)C(=O)N[C@@H](CO)C(=O)N[C@@H](CCCNC(=N)N)C(N)=O)[C@@H](C)CC)C(C)C)[C@@H](C)O)[C@@H](C)CC; UniProt P01286 32-60, looked up, fragment)
serum IGF-I, Day 2 (serum IGF-I [2]; [3]): 281 ng/mL | serum IGF-I, Day 3 (serum IGF-I [2]; [3]): 302 ng/mL | serum IGF-I, Day 4 (serum IGF-I [2]; [3]): 289 ng/mL | serum IGF-I, Day 5 (serum IGF-I [2]; [3]): 293 ng/mL | serum IGF-I, Day 1 (pretreatment) (serum IGF-I [2]; [3]): 278 ng/mL

[hexanoyl^0, 30]hGRF(1-29)NH2 (Hexanoyl-YADAIFTNSYRKVLGQLSARKLLQDIMSR-NH2; also: hexanoyl at position 30; UniProt P01286 32-60, looked up, fragment) [[hexanoyl^0,30] hGRF(1-29)NH2]
serum IGF-I, Day 2 (serum IGF-I [2]; [4]): 212 ng/mL | serum IGF-I, Day 3 (serum IGF-I [2]; [4]): 253 ng/mL | serum IGF-I, Day 4 (serum IGF-I [2]; [4]): 271 ng/mL | serum IGF-I, Day 5 (serum IGF-I [2]; [4]): 277 ng/mL | serum IGF-I, Day 6 (serum IGF-I [2]; [4]): 294 ng/mL | serum IGF-I, Day 1 (pretreatment) (serum IGF-I [2]; [4]): 205 ng/mL | increase in IGF-I levels (serum IGF-I [2]; Experiment 3, 20 μg/kg BID SC, day 4): 32% | increase in IGF-I levels (serum IGF-I [2]; Experiment 3, 20 μg/kg BID SC, day 5): 35% | increase in IGF-I levels (serum IGF-I [2]; Experiment 3, 20 μg/kg BID SC, day 6): 43%

[hexanoyl^0]hGRF(1-44)NH2 (Hexanoyl-YADAIFTNSYRKVLGQLSARKLLQDIMSRQQGESNQERGARARL-NH2; UniProt P01286 32-75, looked up) [[hexanoyl^0] hGRF(1-44)NH2]
serum IGF-I, Day 2 (serum IGF-I [2]; [5]): 290 ng/mL | serum IGF-I, Day 3 (serum IGF-I [2]; [5]): 340 ng/mL | serum IGF-I, Day 4 (serum IGF-I [2]; [5]): 372 ng/mL | serum IGF-I, Day 5 (serum IGF-I [2]; [5]): 361 ng/mL | serum IGF-I, Day 6 (serum IGF-I [2]; [5]): 388 ng/mL | serum IGF-I, Day 1 (pretreatment) (serum IGF-I [2]; [5]): 241 ng/mL | increase in IGF-I levels (serum IGF-I [2]; Experiment 3, 30 μg/kg BID SC, day 3): 41% | increase in IGF-I levels (serum IGF-I [2]; Experiment 3, 30 μg/kg BID SC, day 4): 54% | increase in IGF-I levels (serum IGF-I [2]; Experiment 3, 30 μg/kg BID SC, day 5): 50% | increase in IGF-I levels (serum IGF-I [2]; Experiment 3, 30 μg/kg BID SC, day 6): 61%

[hexanoyl^30]hGRF(1-29)NH2 (YADAIFTNSYRKVLGQLSARKLLQDIMSR-NH2; also: hexanoyl at position 30; UniProt P01286 32-60, looked up, fragment) [[hexanoyl^30] hGRF(1-29)NH2, hexanoyl function anchored at the C-terminal region of hGRF(1-29)NH2]
serum IGF-I, Day 2 (serum IGF-I [2]; [4]): 270 ng/mL | serum IGF-I, Day 3 (serum IGF-I [2]; [4]): 287 ng/mL | serum IGF-I, Day 4 (serum IGF-I [2]; [4]): 278 ng/mL | serum IGF-I, Day 5 (serum IGF-I [2]; [4]): 276 ng/mL | serum IGF-I, Day 6 (serum IGF-I [2]; [4]): 327 ng/mL | serum IGF-I, Day 1 (pretreatment) (serum IGF-I [2]; [4]): 297 ng/mL

[octanoyl^0] hGRF(1-29)NH2 (YADAIFTNSYRKVLGQLSARKLLQDIMSR; HELM PEPTIDE1{[CCCCCCCC(=O)[*:2]].Y.A.D.A.I.F.T.N.S.Y.R.K.V.L.G.Q.L.S.A.R.K.L.L.Q.D.I.M.S.R.[am]}$$$$V2.0; SMILES CCCCCCCC(=O)N[C@@H](Cc1ccc(O)cc1)C(=O)N[C@@H](C)C(=O)N[C@@H](CC(=O)O)C(=O)N[C@@H](C)C(=O)N[C@H](C(=O)N[C@@H](Cc1ccccc1)C(=O)N[C@H](C(=O)N[C@@H](CC(N)=O)C(=O)N[C@@H](CO)C(=O)N[C@@H](Cc1ccc(O)cc1)C(=O)N[C@@H](CCCNC(=N)N)C(=O)N[C@@H](CCCCN)C(=O)N[C@H](C(=O)N[C@@H](CC(C)C)C(=O)NCC(=O)N[C@@H](CCC(N)=O)C(=O)N[C@@H](CC(C)C)C(=O)N[C@@H](CO)C(=O)N[C@@H](C)C(=O)N[C@@H](CCCNC(=N)N)C(=O)N[C@@H](CCCCN)C(=O)N[C@@H](CC(C)C)C(=O)N[C@@H](CC(C)C)C(=O)N[C@@H](CCC(N)=O)C(=O)N[C@@H](CC(=O)O)C(=O)N[C@H](C(=O)N[C@@H](CCSC)C(=O)N[C@@H](CO)C(=O)N[C@@H](CCCNC(=N)N)C(N)=O)[C@@H](C)CC)C(C)C)[C@@H](C)O)[C@@H](C)CC; UniProt P01286 32-60, looked up, fragment)
serum IGF-I, Day 2 (serum IGF-I [2]; [3]): 287 ng/mL | serum IGF-I, Day 3 (serum IGF-I [2]; [3]): 301 ng/mL | serum IGF-I, Day 4 (serum IGF-I [2]; [3]): 301 ng/mL | serum IGF-I, Day 5 (serum IGF-I [2]; [3]): 318 ng/mL | serum IGF-I, Day 1 (pretreatment) (serum IGF-I [2]; [3]): 316 ng/mL
